Legend:
[1] = test system: cancer cells; assay: Growth inhibition, MTT/WST assay, antisense backbones; format: cell-based; settings: maximal kill, 72 hours post treatment
Protocol: The efficacies of various nucleic acid backbone chemistries were investigated by delivering […] to cancer cells in organ culture using a collection of nanoparticles that were less than about 50 nm in diameter. Recurrent head neck tumors are typically small (1-2 cm), but based on volumetric scaling between in vitro tumor nests and mouse studies, it is estimated that estimate that a dose of 3 5 mg will be required to locally treat a 2 cm tumor. Various nucleic acid chemistries may reduce this amount by either enhancing binding affinity between the target mRNA and the antisense, using the antisense to bind to DNA instead of RNA, or increasing nuclease resistance (and half-life). […] Biological activity was assayed as growth inhibition using the MTT/WST assay in a 96 well format. Cells were seeded at 20,000 per well, treated 18 hours later, then assayed at 72 hours post treatment. Although the cells are resistant to conventional chemotherapeutic agents, cisplatin activity is shown for reference (black line). […] Additional formats screened but not shown were a phosphodiester/2OME chimeric and the siRNA format.

[2] = test system: metastatic variant of Alva-41 prostate carcinoma cells; assay: Growth inhibition by nanoencapsulated cisplatin; format: cell-based, human; settings: 5,000 cells per well, 72 hours
Protocol: Cisplatin was nanoencapsulated into the various candidate tumor binding agents as described previously and nanoparticles were compared for growth inhibition in a metastatic variant of Alva-41 prostate carcinoma cells and Ca-9-22. Formulas were tested in duplicate in two separate experiments. Results are illustrated for the prostate cell line in FIG. 5D. Referring to FIG. 5D, PEX-MMP-1/Cisplatin refers to s50 nanoparticles comprising cisplatin and the Recombinant Pex binding domain of membrane-associated Matrix Metalloproteinase-1 (see Bello et. al, Cancer Research (2001) 61: 8730-36); Tenascin/Cisplatin refers to s50 nanoparticles having tenascin and cisplatin, FN-PHSCN/Cisplatin refers to nanoparticles comprising the FN-PHSCN fragment and cisplatin, Osteonecetin/asCK2 refers to s50 nanoparticles comprising osteonectin and the asCK2 antisense sequence, galectin-3/cisplatin refers to s50 nanoparticles comprising galectin-3 and cisplatin, hyaluronan/cisplatin refers to s50 nanoparticles comprising hyaluronan and cisplatin, and naked cisplatin refers to the addition of free cisplatin to the cell medium. In these experiments cells were plated at 5,000 per well and followed for 72 hours. […] As a comparison, based on a standard male patient, an acceptable in vitro dose of cisplatin would correspond to about 10 μg/ml or 30 μM. […]

[3] = test system: SCC-15; assay: Growth inhibition in chemoresistant head neck cancer cell line; format: cell-based, human
Protocol: Antisense molecules were tested for growth inhibition against the chemoresistant head neck cancer cell line SCC-15 at 10,000 cells per well, the cells being pretreated with tenascin, with results as shown in FIG. 5B-C. Referring to FIG. 5B, PO refers to phosphodiester antisense referred to as asCK2 in Table 9 (SEQ ID NO 1), PO sense refers to phosphodiester sense sequence complementary to asCK2, siRNA refers to a duplex RNA sequence that is screened from the asCk2 sequence, 2OME RNA refers to a nucleic acid of the sequence SEQ ID NO 1 that is all RNA and is al methylated, and PO RNA refers to a proprietary chimeric molecule having the sequence of SEQ ID NO 1 but being a mixture of RNA and DNA and having phosphodiester and 2OME backbone. […] Because of it's capacity for being metabolized, the PO RNA construct within the context of a colloidal formulation will offer advantages in safety for delivery of cytotoxic constructs.
Referring to FIG. 5C, cisplatin TN/x s-50 refers to nanoparticles comprising cisplatin and a 1:1 w/w ratio of tenascin:dextran. Tn s-50 refers to nanoparticles comprising cisplatin and tenascin, asCK2 TN s-50 refers to nanoparticles comprising tenascin and asCK2 antisense of sequence SEQ ID NO 1, and free cisplatin refers to cisplatin added to the cell medium.

[4] = test system: hormone-sensitive Alva-41 prostate carcinoma cells; assay: Growth inhibition in prostate carcinoma cells; format: cell-based, human; settings: Alva-41, 5,000 cells per untreated well
Protocol: (§1) In these studies, cells were seeded at 5,000 cells per untreated well.

[5] = test system: hormone-insensitive PC3 cells; assay: Growth inhibition in prostate carcinoma cells; format: cell-based; settings: PC3, 5,000 cells per untreated well
Protocol: as §1

Compound: 2-0 methyl RNA format: nucleic acid of the sequence SEQ ID NO 1 that is all RNA and methylated, in s50 nanoparticles (GTCCCGACATGTCAGACAGG; all 2'-O-methyl, backbone and T or U not given here; formulated in s50 nanoparticles)
- complete kill achieved in vitro [1]: capacity for complete kill

Compound: N.N.[Cl][Pt][Cl] [free cisplatin, cisplatin, reference compound]
- IC50 [2]: 100 µM
- overall in vitro kill ([3]; SCC-15, FIG. 5C): zero

Compound: PO RNA: chimeric molecule with sequence of SEQ ID NO 1, mixture of RNA and DNA, phosphodiester and 2OME backbone (antisense GTCCCGACATGTCAGACAGG; RNA/DNA chimera, phosphodiester and 2'-O-methyl, chemistry not fully specified)
- IC50 ([3]; SCC-15, 10,000 cells per well, pretreated with tenascin): 3000 nM

Compound: SEQ ID NO 1: GTCCCGACATGTCAGACAGG; phosphodiester antisense 20mer to CK2α translation start site (antisense GTCCCGACATGTCAGACAGG; all phosphodiester, sugars by position and methylation of C not given here)
- IC50 [4]: 15 µM
- IC50 [5]: 40 µM

From patent US20080220072A1, “BIOLOGIC MODULATIONS WITH NANOPARTICLES” (priority 2002, published 2008)
